Results taken from patent US9833497B2, “Human originated EGF domain proteins and use of the same” (CHENGDU SOURCEBIO LIMITED-LIABILITY COMPANY, priority 2013, dated 2017).

Tests used:
Format in all cases: cell-based
[1] = system: Moraxella catarrhalis; test: MIC against Gram-negative bacteria: Moraxella catarrhalis; details: 5×10^5 CFU/mL
Procedure, shortened: (§1)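 Two-fold serial dilutions of each purified human EGF domain protein, three replicate wells per level, were combined with bacteria at a final 5×10^5 CFU/mL in LB. Cultures were shaken at 175 rpm, 37° C. The MIC was taken as the minimum concentration preventing growth.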

[2] = system: Pseudomonas aeruginosa; test: MIC against Gram-negative bacteria: Pseudomonas aeruginosa; details: 5×10^5 CFU/mL
Procedure, shortened: as §1

[3] = system: Proteus mirabilis; test: MIC against Gram-negative bacteria: Proteus mirabilis; details: 5×10^5 CFU/mL
Procedure, shortened: as §1

[4] = system: Aeromonas hydrophila; test: MIC against Gram-negative bacteria: Aeromonas hydrophila; details: 5×10^5 CFU/mL
Procedure, shortened: as §1

[5] = system: E. coli DH5α; test: Antibacterial activity: MIC and growth curve against E. coli DH5α in 96-well plate; details: minimal inhibitory concentration against E. coli DH5α; 96-well plate, 5×10^5 CFU/mL, 37° C., judged after 8 h
Procedure, shortened: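 Log-phase DH5α (OD600 about 0.5, 37° C, 185 rpm in LB) was pelleted, resuspended in fresh LB and seeded at 5×10^5 CFU/mL with recombinant protein at 50, 25 and 12.5 μg/mL (two-fold series), in triplicate. Plates were shaken at 175 rpm, 37° C, and OD600 was read every 30 min. MIC was the lowest concentration with no growth.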

[6] = system: Enterobacter cloacae; test: MIC against Gram-negative bacteria: Enterobacter cloacae; details: 5×10^5 CFU/mL
Procedure, shortened: as §1

[7] = system: E. coli BL21; test: MIC against Gram-negative bacteria: E. coli BL21; details: 5×10^5 CFU/mL
Procedure, shortened: as §1

[8] = system: Citrobacter diversus; test: MIC against Gram-negative bacteria: Citrobacter diversus; details: 5×10^5 CFU/mL
Procedure, shortened: as §1

[9] = system: Proteus vulgaris; test: MIC against Gram-negative bacteria: Proteus vulgaris; details: 5×10^5 CFU/mL
Procedure, shortened: as §1

[10] = system: Serratia marcescens; test: MIC against Gram-negative bacteria: Serratia marcescens; details: 5×10^5 CFU/mL
Procedure, shortened: as §1

[11] = system: Klebsiella pneumonia; test: MIC against Gram-negative bacteria: Klebsiella pneumonia; details: 5×10^5 CFU/mL
Procedure, shortened: as §1

For “PRT605 (CLCPDDPSSNQYFAHSCYQNLWSSDVICNCLQGYTGTQCGECSTGFYGNPRISGAPCQP; listed as Homo sapiens)”, which “MIC M. catarrhalis” value ([1]; 96-well plate, 37° C., 10 h) is on record?
The value was 25 µg/mL.

What about the “MIC P. aeruginosa” value ([2]; 96-well plate, 37° C., 10 h) of the same substance?
The value was 50 µg/mL.

And the “MIC P. mirabilis” value ([3]; 96-well plate, 37° C., 10 h)?
Its value is 12.5 µg/mL.

What about the “MIC A. hydrophila” value ([4]; 96-well plate, 37° C., 10 h) of the same substance?
The value was 25 µg/mL.

And the MIC [5]?
Its MIC is 12.5 µg/mL.

What about the “MIC E. cloacae” value ([6]; 96-well plate, 37° C., 10 h) of the same substance?
Its value is 12.5 µg/mL.

What about the “MIC E. coli BL21” value ([7]; 96-well plate, 37° C., 10 h) of the same substance?
Its value is 25 µg/mL.

What about the “MIC C. diversus” value ([8]; 96-well plate, 37° C., 10 h) of the same substance?
Its value is 50 µg/mL.

What about the “MIC P. vulgaris” value ([9]; 96-well plate, 37° C., 10 h) of the same substance?
The value was 25 µg/mL.

What about the “MIC S. marcescens” value ([10]; 96-well plate, 37° C., 10 h) of the same substance?
Its value is 50 µg/mL.

And the “MIC K. pneumonia” value ([11]; 96-well plate, 37° C., 10 h)?
The value was 25 µg/mL.

Which “MIC (μg/mL) M. catarrhalis” value ([1]; Moraxella catarrhalis, 96-well plate, 37° C., 10 h) does the source give for “PRT36 (PVRDCSKDNGGCSKNFRCISDRKLDSTGCVCPSGLSPMKDSSGCY; listed as Homo sapiens)” here?
The value was 25 µg/mL.

And the “MIC (μg/mL) P. aeruginosa” value ([2]; Pseudomonas aeruginosa, 96-well plate, 37° C., 10 h)?
Its value is 12.5 µg/mL.

And the “MIC (μg/mL) P. mirabilis” value ([3]; Proteus mirabilis, 96-well plate, 37° C., 10 h)?
The value was 25 µg/mL.

What about the “MIC (μg/mL) A. hydrophila” value ([4]; Aeromonas hydrophila, 96-well plate, 37° C., 10 h) of the same substance?
The value was 25 µg/mL.

What about the MIC [5] of the same substance?
Its MIC is 12.5 µg/mL.

And the “MIC (μg/mL) E. cloacae” value ([6]; Enterobacter cloacae, 96-well plate, 37° C., 10 h)?
Its value is 25 µg/mL.

What about the “MIC (μg/mL) E. coli BL21” value ([7]; E. coli BL21, 96-well plate, 37° C., 10 h) of the same substance?
Its value is 25 µg/mL.

And the “MIC (μg/mL) C. diversus” value ([8]; Citrobacter diversus, 96-well plate, 37° C., 10 h)?
The value was 50 µg/mL.

And the “MIC (μg/mL) P. vulgaris” value ([9]; Proteus vulgaris, 96-well plate, 37° C., 10 h)?
Its value is 12.5 µg/mL.

And the “MIC (μg/mL) S. marcescens” value ([10]; Serratia marcescens, 96-well plate, 37° C., 10 h)?
The value was 25 µg/mL.

And the “MIC (μg/mL) K. pneumonia” value ([11]; Klebsiella pneumonia, 96-well plate, 37° C., 10 h)?
Its value is 12.5 µg/mL.

Which results are given for “PRT713 (GTNVCARDNGGCKQLCLYRGNSRRTCACAHGYLAEDGVTCL; listed as Homo sapiens)”?
MIC M. catarrhalis ([1]; 96-well plate, 37° C., 10 h): 12.5 µg/mL; MIC P. aeruginosa ([2]; 96-well plate, 37° C., 10 h): 12.5 µg/mL; MIC P. mirabilis ([3]; 96-well plate, 37° C., 10 h): 50 µg/mL; MIC A. hydrophila ([4]; 96-well plate, 37° C., 10 h): 12.5 µg/mL; MIC [5]: 50 µg/mL; MIC E. cloacae ([6]; 96-well plate, 37° C., 10 h): 50 µg/mL; MIC E. coli BL21 ([7]; 96-well plate, 37° C., 10 h): 25 µg/mL; MIC C. diversus ([8]; 96-well plate, 37° C., 10 h): 50 µg/mL; MIC P. vulgaris ([9]; 96-well plate, 37° C., 10 h): 12.5 µg/mL; MIC S. marcescens ([10]; 96-well plate, 37° C., 10 h): 50 µg/mL; MIC K. pneumonia ([11]; 96-well plate, 37° C., 10 h): 12.5 µg/mL

How did the “MIC against M. catarrhalis” value ([1]; Moraxella catarrhalis, 10 h cultivation at 37° C.) turn out when “PRT1474 (IPDQCSPLPCNEDGYMSCKDGKASFTCTCKPGWQGEKCE; listed as Homo sapiens)” was run?
The value was 25 µg/mL.

What about the “MIC against P. aeruginosa” value ([2]; Pseudomonas aeruginosa, 10 h cultivation at 37° C.) of the same substance?
The value was 25 µg/mL.

What about the “MIC against P. mirabilis” value ([3]; Proteus mirabilis, 10 h cultivation at 37° C.) of the same substance?
The value was 50 µg/mL.

What about the “MIC against A. hydrophila” value ([4]; Aeromonas hydrophila, 10 h cultivation at 37° C.) of the same substance?
The value was 25 µg/mL.

And the MIC [5]?
Its MIC is 50 µg/mL.

And the “MIC against E. cloacae” value ([6]; Enterobacter cloacae, 10 h cultivation at 37° C.)?
Its value is 50 µg/mL.

What about the “MIC against E. coli BL21” value ([7]; E. coli BL21, 10 h cultivation at 37° C.) of the same substance?
Its value is 12.5 µg/mL.

And the “MIC against C. diversus” value ([8]; Citrobacter diversus, 10 h cultivation at 37° C.)?
The value was 12.5 µg/mL.

And the “MIC against P. vulgaris” value ([9]; Proteus vulgaris, 10 h cultivation at 37° C.)?
Its value is 12.5 µg/mL.

And the “MIC against S. marcescens” value ([10]; Serratia marcescens, 10 h cultivation at 37° C.)?
The value was 25 µg/mL.

And the “MIC against K. pneumonia” value ([11]; Klebsiella pneumonia, 10 h cultivation at 37° C.)?
Its value is 25 µg/mL.

How did the “MIC against M. catarrhalis” value ([1]; 96-well plate, 37° C., 10 h) turn out when “PRT476 (VVPVCRPNPCQNGATCSRHKRRSKFTCACPDQFKGKFCE; listed as Homo sapiens)” was run?
The value was 25 µg/mL.

And the “MIC against P. aeruginosa” value ([2]; 96-well plate, 37° C., 10 h)?
The value was 50 µg/mL.

What about the “MIC against P. mirabilis” value ([3]; 96-well plate, 37° C., 10 h) of the same substance?
The value was 25 µg/mL.

And the “MIC against A. hydrophila” value ([4]; 96-well plate, 37° C., 10 h)?
The value was 12.5 µg/mL.

And the MIC [5]?
The MIC was 12.5 µg/mL.

What about the “MIC against E. cloacae” value ([6]; 96-well plate, 37° C., 10 h) of the same substance?
Its value is 50 µg/mL.

What about the “MIC against E. coli BL21” value ([7]; 96-well plate, 37° C., 10 h) of the same substance?
Its value is 12.5 µg/mL.

What about the “MIC against C. diversus” value ([8]; 96-well plate, 37° C., 10 h) of the same substance?
Its value is 50 µg/mL.

What about the “MIC against P. vulgaris” value ([9]; 96-well plate, 37° C., 10 h) of the same substance?
The value was 12.5 µg/mL.

What about the “MIC against S. marcescens” value ([10]; 96-well plate, 37° C., 10 h) of the same substance?
Its value is 50 µg/mL.

What about the “MIC against K. pneumonia” value ([11]; 96-well plate, 37° C., 10 h) of the same substance?
Its value is 12.5 µg/mL.

Which results are given for “PRT478 (ATQYCSRAQCHGHGRCVRRNPSASTFLHLSTNSFRLVPGHAPGEPQLRPVGELSWADIDH; listed as Homo sapiens)”?
MIC against M. catarrhalis ([1]; 96-well plate, 37° C., 10 h): 25 µg/mL; MIC against P. aeruginosa ([2]; 96-well plate, 37° C., 10 h): 12.5 µg/mL; MIC against P. mirabilis ([3]; 96-well plate, 37° C., 10 h): 50 µg/mL; MIC against A. hydrophila ([4]; 96-well plate, 37° C., 10 h): 25 µg/mL; MIC [5]: 50 µg/mL; MIC against E. cloacae ([6]; 96-well plate, 37° C., 10 h): 50 µg/mL; MIC against E. coli BL21 ([7]; 96-well plate, 37° C., 10 h): 25 µg/mL; MIC against C. diversus ([8]; 96-well plate, 37° C., 10 h): 100 µg/mL; MIC against P. vulgaris ([9]; 96-well plate, 37° C., 10 h): 25 µg/mL; MIC against S. marcescens ([10]; 96-well plate, 37° C., 10 h): 12.5 µg/mL; MIC against K. pneumonia ([11]; 96-well plate, 37° C., 10 h): 25 µg/mL
